Several values for one entry are separate records, joined by “and”; a condition that tells them apart may be missing. Equal values may be shown once. Read-outs that look alike come from different tables or passages of the source.
Experiments:
[1] = lipophilicity; cited from earlier work
[2] = Plasma clearance and plasma metabolite analysis; format: in vivo, rat; details: metabolite-corrected plasma, intravenous injection, rats
Procedure: (§1) PET scans with arterial blood sampling were performed in a different set of rats to generate input for pharmacokinetic modelling. For the arterial blood sampling a cannula was inserted into the femoral artery after induction of anaesthesia. The femoral vein was additionally cannulated for PET tracer injection. After cannulation, the rats were positioned in the camera and a transmission scan was acquired using a ^57Co point source. […] A 0.1 ml blood sample of was taken at 0, 5, 10, 15, 20, 30, 45, 60, 75, 90, 120, 180, 300, 450, 600, 900, 1,800 and 3,600 s after injection. A larger blood sample of 0.5 ml was taken at three time points (5, 15, 30 and/or 60 min) for metabolite analysis. After collection of each blood sample, heparinized saline was injected to prevent large changes in blood pressure. A 25 μl aliquot of whole blood was extracted from each sample for radioactivity measurement. The remainder of each sample was centrifuged at 13,000 rpm (15,996 g) for 8 min, and 25 μl plasma was taken for radioactivity measurement. The radioactivity in blood and plasma was measured with a gamma counter.
Radioactive metabolites in plasma were measured using the extra blood samples taken at three time points during each scan (5, 15, 30 and/or 60 min). After centrifugation and collection of the plasma sample for radioactive measurement, as described above, the remaining plasma was diluted with acetonitrile (1.5 times the amount of plasma) and vortex-mixed. The plasma suspension was centrifuged at 5,300 rpm (3,030 g) for 3 min, and divided into supernatant and pellet. […] Fractions of 30 s were collected and measured in the gamma counter.
The percentage of metabolites in plasma was calculated by fitting an exponential function to the values obtained from the HPLC analysis. The plasma values obtained from the blood samples during the PET scan were then corrected for the presence of these metabolites, and used together with the whole-blood curve for further analysis. Metabolite corrected plasma TACs were fitted for each individual rat using iterative nonlinear least-squares fitting to the biexponential equation: SUVt = Ae^−αt + Be^−βt, where SUVt is the plasma SUV at time t, α and β are the apparent distribution and elimination rate constants (s^−1), respectively, and A and B are the corresponding zero-time intercepts. The weighting factors were the reciprocals of the plasma SUV squared. Distribution and elimination half-lives (seconds) were calculated as the natural logarithm of 2 divided by α and β, respectively.

TSPO [3] = molecular target: T1, TSPO (Rattus norvegicus, UniProt P16257); assay: Kinetic modelling of PET data (2TCMR, Logan): BPND and VT; format: in vivo
T1 construct: from tissue; host or cells: Brain regions and peripheral organs of male Wistar rats, measured in vivo by PET and ex vivo by gamma counting
Procedure: as §1
The TACs of those rats in which blood sampling was performed, together with their corresponding whole-blood and metabolite-corrected plasma curves, were used for pharmacokinetic modelling using PMOD v3.3 (PMOD Technologies, Zürich, Switzerland). […] The reversible two-tissue compartment model (2TCMR) with K 1/k 2 fixed to the whole cortex value and a fixed blood volume of 3 % were used to calculate the V T and nondisplaceable binding potential (BPND, calculated as k 3/k 4 [29]).

[4] = parameters: method as in PMID 19050880; details: cited from earlier work
TSPO [5] = molecular target: T1, TSPO; assay: Ex vivo biodistribution of [^11C]CB184 in control and HSE rats; details: 5 mg/kg unlabelled PK11195 5 min before tracer injection; control and HSE rats
Procedure: PET scans were performed using a microPET Focus 220 camera (Siemens Medical Solutions Inc., Malvern, PA) on either day 6 or day 7 after inoculation with HSV-1 [18], depending on the severity of clinical symptoms. The rats were anaesthetized with 5 % isoflurane mixed with medical air at a flow rate of […]. After induction, anaesthesia was maintained with 1.5 – 2 % of isoflurane. The anaesthetized rats were positioned in the camera in a supine position with the head in the field of view. The PET tracer [^11C]CB184 was manually injected via the penile vein, and at the same time a dynamic 60-min scan was started. […] For 30 min the animals were kept under anaesthesia on the operation table after injection of the PET tracer into the penile vein, and were then placed in the scanner for a 30-min dynamic scan. A transmission scan was obtained in all rats using a ^57Co point source for attenuation and scatter correction. In the pretreated group, 5 mg/kg unlabelled PK11195 (Sigma-Aldrich, St. Louis, MO) in dimethyl sulphoxide (DMSO) at a concentration of 10 mg/ml was administered via a tail vein 5 min before injection of the PET tracer.
The brain and peripheral organs were excised and dissected, and blood was centrifuged to collect a plasma sample. Tissues were weighed and radioactivity was measured in a gamma counter (LKB Wallac, Turku, Finland). Tracer uptake in each region was corrected for the injected tracer dose and body weight and expressed as standardized uptake value (SUV), which was defined as: radioactivity (MBq/cm^3)/[injected dose (MBq)/body weight (g)].

TSPO [6] = molecular target: T1, TSPO; details: HSE rat model; cited from earlier work
[7] = control rats (PBS group), k3/k4

## CC[C@@H](C)N([11CH3])C(=O)c1cc2ccccc2c(-c2ccccc2Cl)n1 [(R)-[^11C]PK11195, reference compound]
[1]
  logP: 2.54
[2]
  Distribution half-life in plasma: 0.367 ± 0.12 min
  Elimination half-life in plasma: 65 ± 46 min
TSPO [3]; HSE group, k3/k4
  Binding potential (BPND), Amygdala: 1.92 ± 0.73
  Binding potential (BPND), Cerebellum: 1.89 ± 0.39
  Binding potential (BPND), Frontal cortex: 1.54 ± 0.54
  Binding potential (BPND), Hippocampus: 1.39 ± 0.58
  Binding potential (BPND), Hypothalamus: 2.28 ± 0.84
  Binding potential (BPND), Midbrain: 1.34 ± 0.42
  Binding potential (BPND), Olfactory bulb: 4.03 ± 1.20
  Binding potential (BPND), Pons: 2.44 ± 0.41
  Binding potential (BPND), Rest cortices: 1.62 ± 0.60
  Binding potential (BPND), Septum: 1.34 ± 0.57
  Binding potential (BPND), Striatum: 1.03 ± 0.43
  Binding potential (BPND), Thalamus: 1.03 ± 0.51
  Binding potential (BPND), Whole brain: 1.72 ± 0.49
TSPO [3]; [7]
  Binding potential (BPND), Amygdala: 1.65 ± 0.62
  Binding potential (BPND), Cerebellum: 1.51 ± 0.60
  Binding potential (BPND), Frontal cortex: 1.35 ± 0.51
  Binding potential (BPND), Hippocampus: 0.98 ± 0.44
  Binding potential (BPND), Hypothalamus: 1.92 ± 0.82
  Binding potential (BPND), Medulla: 1.7 ± 0.6 and 1.65 ± 0.60
  Binding potential (BPND), Midbrain: 0.96 ± 0.49
  Binding potential (BPND), Olfactory bulb: 3.76 ± 1.16
  Binding potential (BPND), Pons: 1.74 ± 0.69
  Binding potential (BPND), Rest cortices: 1.33 ± 0.46
  Binding potential (BPND), Septum: 1.20 ± 0.38
  Binding potential (BPND), Striatum: 0.88 ± 0.33
  Binding potential (BPND), Thalamus: 0.75 ± 0.35
  Binding potential (BPND), Whole brain: 1.38 ± 0.49
TSPO [3]; medulla
  Increase of BPND in the medulla, HSE rats vs. control rats: 55%
[4]; 20 min after injection
  Percentage of unchanged tracer in rat brain homogenate: 93 ± 4%
[4]; 40 min after injection
  Percentage of unchanged tracer in rat brain homogenate: 90 ± 7%

## CCC(C)N(C)C(=O)c1cc2ccccc2c(-c2ccccc2Cl)n1 (centres unmarked) [PK11195, reference compound]
TSPO [5]
  Effect of pretreatment on [^11C]CB184 binding to TSPO: blocked

## COc1ccc(O[11CH3])c(CN(C(C)=O)c2cc(F)ccc2Oc2ccccc2)c1 [[^11C]DAA1106]
TSPO [6]
  Uptake in vivo in HSE rats vs. control rats: did not show significantly higher uptake
